For twelve compounds, IC50 results are on record in US6559142B2, “Sulfonamide matrix metalloproteinase inhibitors” (Warner-Lambert Company, priority 2001, dated 2003).

SMILES strings stand for the structures.

Common to all, as to assay type: biochemical
Test [1] concerns the target T1, MMP-1FL (full-length interstitial collagenase) (Homo sapiens, UniProt P03956).
T1 sequence (P03956 100-469): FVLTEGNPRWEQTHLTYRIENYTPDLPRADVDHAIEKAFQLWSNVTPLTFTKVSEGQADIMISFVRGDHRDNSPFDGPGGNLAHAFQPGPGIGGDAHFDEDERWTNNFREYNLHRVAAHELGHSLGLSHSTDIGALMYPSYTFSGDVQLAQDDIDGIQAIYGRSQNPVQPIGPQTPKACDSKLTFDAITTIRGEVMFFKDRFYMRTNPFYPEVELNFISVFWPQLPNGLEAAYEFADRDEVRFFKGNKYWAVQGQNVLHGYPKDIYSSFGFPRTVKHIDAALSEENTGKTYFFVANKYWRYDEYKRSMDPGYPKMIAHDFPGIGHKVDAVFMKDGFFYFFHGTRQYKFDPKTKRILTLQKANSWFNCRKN
The experiment in a line: Thiopeptolide hydrolysis inhibition assay, MMP-1FL. The note with it: thiopeptolide substrate, HEPES pH 7.0, 22° C. The text has this: (§1) The assays measure the amount by which a test compound reduces the hydrolysis of a thiopeptolide substrate catalyzed by a matrix metalloproteinase enzyme. Such assays are described in detail by Ye et al., Biochemistry, 1992;31(45):11231-11235, hereby incorporated herein by reference.
(§2) Thiopeptolide substrates show virtually no decomposition or hydrolysis at or below neutral pH in the absence of a matrix metalloproteinase enzyme. A typical thiopeptolide substrate commonly utilized for assays is Ac-Pro-Leu-Gly-thioester-Leu-Leu-Gly-OEt. A 100 μL assay mixture will contain 50 mM of N-2-hydroxyethylpiperazine-N′-2-ethanesulfonic acid buffer (“HEPES”) at pH 7.0, 10 mM CaCl2, 100 μM thiopeptolide substrate, and 1 mM 5,5′-dithio-bis-(2-nitrobenzoic acid) (DTNB). The thiopeptolide substrate concentration may be varied from, for example, 10 to 800 μM, in order to obtain Km and Kcat values. The change in absorbance at 405 nm is monitored on a Thermo Max microplate reader (Molecular Devices, Menlo Park, Calif.) at room temperature (22° C.). The calculation of the amount of hydrolysis of the thiopeptolide substrate is based on E412=13600 M^−1 cm^−1 for the DTNB-derived product 3-carboxy-4-nitrothiophenoxide. Assays are carried out with and without matrix metalloproteinase inhibitor compounds, and the amount of hydrolysis is compared for a determination of inhibitory activity of the test compounds.
(§3) Several representative compounds have been evaluated for their ability to inhibit various matrix metalloproteinase enzymes. In Table 1, MMP-1FL refers to full-length interstitial collagenase; MMP-2FL refers to full-length Gelatinase A; MMP-3CD refers to the catalytic domain of stromelysin-1; MMP-7FL refers to full-length matrilysin; MMP-9FL refers to full-length Gelatinase B; MMP-13CD refers to the catalytic domain of collagenase 3; and MMP-14CD refers to the catalytic domain of MMP-14. Test compounds were evaluated at various concentrations, in order to determine their respective IC50 values, the micromolar concentration of compound required to cause a 50% inhibition of the catalytic activity of the respective enzyme.

Test [2] has as its target MMP-3CD (catalytic domain of stromelysin-1) (Homo sapiens, UniProt P08254). Put plainly: Thiopeptolide hydrolysis inhibition assay, MMP-3CD. As to conditions: thiopeptolide substrate, MES buffer pH 6.0.
Description: as §1, §2
It should be appreciated that the assay buffer used with MMP-3CD is 50 mM of N-morpholinoethanesulfonate (“MES”) at pH 6.0 rather than the HEPES buffer at pH 7.0 described above.
as §3

The target of test [3] is MMP-13CD (catalytic domain of collagenase 3) (Homo sapiens, UniProt P45452). The experiment in a line: Thiopeptolide hydrolysis inhibition assay, MMP-13CD. As to conditions: thiopeptolide substrate, HEPES pH 7.0, 22° C.
Description: as §1, §2, §3

For test [4], the target named is MMP-14CD (catalytic domain of MMP-14) (Homo sapiens, UniProt P50281). The experiment in a line: Thiopeptolide hydrolysis inhibition assay, MMP-14CD. As to conditions: thiopeptolide substrate, HEPES pH 7.0, 22° C.
Description: as §1, §2, §3

Test [5] deals with T2, MMP-2FL (full-length Gelatinase A) (Homo sapiens, UniProt P08253).
T2 sequence (P08253 110-660): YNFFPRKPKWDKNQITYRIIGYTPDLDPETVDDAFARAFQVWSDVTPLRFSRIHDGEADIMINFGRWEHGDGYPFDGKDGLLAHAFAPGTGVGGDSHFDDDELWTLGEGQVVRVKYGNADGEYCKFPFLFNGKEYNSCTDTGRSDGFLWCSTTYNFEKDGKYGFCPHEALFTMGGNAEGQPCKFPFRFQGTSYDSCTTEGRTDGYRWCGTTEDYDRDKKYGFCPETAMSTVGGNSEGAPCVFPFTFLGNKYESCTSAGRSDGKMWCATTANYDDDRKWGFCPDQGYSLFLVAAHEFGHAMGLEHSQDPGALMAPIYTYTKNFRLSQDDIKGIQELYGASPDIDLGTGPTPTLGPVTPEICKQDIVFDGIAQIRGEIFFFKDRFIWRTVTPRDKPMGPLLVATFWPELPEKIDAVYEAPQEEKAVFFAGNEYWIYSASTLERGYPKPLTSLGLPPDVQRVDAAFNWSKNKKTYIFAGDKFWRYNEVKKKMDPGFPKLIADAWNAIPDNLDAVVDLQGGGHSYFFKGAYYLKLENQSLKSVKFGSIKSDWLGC
Put plainly: Thiopeptolide hydrolysis inhibition assay, MMP-2FL. As to conditions: thiopeptolide substrate, HEPES pH 7.0, 22° C.
Description: as §1, §2, §3

Test [6] deals with T3, MMP-7FL (full-length matrilysin) (Homo sapiens, UniProt P09237).
T3 sequence (P09237 95-267): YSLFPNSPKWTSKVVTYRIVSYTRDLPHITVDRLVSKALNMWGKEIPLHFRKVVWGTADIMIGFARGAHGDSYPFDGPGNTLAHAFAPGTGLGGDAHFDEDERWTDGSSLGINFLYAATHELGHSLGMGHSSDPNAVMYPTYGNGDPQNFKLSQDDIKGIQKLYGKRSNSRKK
Put plainly: Thiopeptolide hydrolysis inhibition assay, MMP-7FL. As to conditions: thiopeptolide substrate, HEPES pH 7.0, 22° C.
Description: as §1, §2, §3

Test [7] concerns the target MMP-9FL (full-length Gelatinase B) (Homo sapiens, UniProt P14780). Put plainly: Thiopeptolide hydrolysis inhibition assay, MMP-9FL. The note with it: thiopeptolide substrate, HEPES pH 7.0, 22° C.
Description: as §1, §2, §3

Chain of MMP-9FL (full-length Gelatinase B) (P14780 94-707, species assumed): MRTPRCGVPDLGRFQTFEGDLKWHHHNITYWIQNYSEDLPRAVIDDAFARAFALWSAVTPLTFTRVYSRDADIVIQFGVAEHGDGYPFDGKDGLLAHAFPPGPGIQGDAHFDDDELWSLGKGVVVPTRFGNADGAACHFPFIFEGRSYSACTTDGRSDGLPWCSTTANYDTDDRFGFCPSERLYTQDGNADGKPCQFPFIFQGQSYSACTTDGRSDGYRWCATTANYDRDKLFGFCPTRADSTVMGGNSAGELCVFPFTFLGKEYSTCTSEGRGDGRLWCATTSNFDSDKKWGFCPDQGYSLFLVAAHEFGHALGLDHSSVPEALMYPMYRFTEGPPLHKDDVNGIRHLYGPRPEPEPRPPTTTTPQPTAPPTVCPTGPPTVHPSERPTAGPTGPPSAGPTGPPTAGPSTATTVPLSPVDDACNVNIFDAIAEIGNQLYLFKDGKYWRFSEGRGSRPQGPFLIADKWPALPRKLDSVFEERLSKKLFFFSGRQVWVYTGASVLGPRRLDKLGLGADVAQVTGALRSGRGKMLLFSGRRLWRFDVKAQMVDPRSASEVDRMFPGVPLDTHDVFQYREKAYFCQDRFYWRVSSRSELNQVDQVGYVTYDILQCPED
Chain of MMP-3CD (catalytic domain of stromelysin-1) (P08254 100-272 limits assumed): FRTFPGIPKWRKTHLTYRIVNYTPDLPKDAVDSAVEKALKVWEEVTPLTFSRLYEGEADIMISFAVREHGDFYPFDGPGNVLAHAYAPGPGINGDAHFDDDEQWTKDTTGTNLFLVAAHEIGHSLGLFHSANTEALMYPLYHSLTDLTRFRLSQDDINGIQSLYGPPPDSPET

As for `CC1(C)SCCN(S(=O)(=O)c2ccc3oc4cc(Br)ccc4c3c2)[C@H]1C(=O)NO` [Example 10, (S)-4-(7-Bromo-dibenzofuran-2-sulfonyl)-2,2-dimethyl-thiomorpholine-3-carboxylic Acid Hydroxyamide], the IC50 in test [1] was determined as 0.042 µM; in test [2] it was 4 nM; in test [3], 2 nM; in test [4], 12 nM; in test [5], 7 nM; in test [6], 31 nM. The compound further displayed an IC50 in test [7] of 0.066 µM.

Consider `CC1(C)SCCN(S(=O)(=O)c2ccc3oc4cc(Br)ccc4c3c2)[C@H]1C(=O)O` [Example 9, (S)-4-(7-Bromo-dibenzofuran-2-sulfonyl)-2,2-dimethyl-thiomorpholine-3-carboxylic Acid], for which the IC50 in test [1] is 70 µM; in test [2] it was 20 nM; in test [3], 920 nM; in test [4], 3800 nM; in test [5], 4000 nM; in test [6], 1200 nM. The IC50 in test [7] was 65 µM.

For `COC(=O)c1ccc2c(c1)oc1ccc(S(=O)(=O)N3CCSC(C)(C)[C@@H]3C(=O)O)cc12` [Example 11, (S)-4-(7-Methoxycarbonyl-dibenzofuran-2-sulfonyl)-2,2-dimethyl-thiomorpholine-3-carboxylic Acid], the IC50 was found to be 100 µM in test [1]; 94 nM in test [2]; 4600 nM in test [3]; 20000 nM in test [4]; 5200 nM in test [5]; 3500 nM in test [6]. In test [7], this compound registered an IC50 of 69 µM.

For the compound `CC1(C)SCN(S(=O)(=O)c2ccc3c(c2)oc2ccccc23)[C@@H]1C(=O)NO` [Example 4, R-3-(Dibenzofuran-3-sulfonyl)-5,5-dimethyl-thiazolidine-4-carboxylic Acid Hydroxyamide], the IC50 is 6.9 µM in test [1]; 3200 nM in test [2]; 1400 nM in test [3]; 11000 nM in test [4]; 3900 nM in test [5]; 59000 nM in test [6]. Moreover, the IC50 in test [7] came to 18 µM.

In the case of `COC(=O)c1ccc2c(c1)oc1ccc(S(=O)(=O)N3CCSC(C)(C)[C@@H]3C(=O)NO)cc12` [Example 12, (S)-4-(7-Methoxycarbonyl-dibenzofuran-2-sulfonyl)-2,2-dimethyl-thiomorpholine-3-carboxylic Acid Hydroxyamide], the IC50 in test [1] was determined as 0.15 µM; in test [2], 6 nM; in test [3], 5 nM; in test [4], 95 nM; in test [5], 17 nM; in test [6], 29 nM. The compound further had an IC50 in test [7] of 0.047 µM.

`CC1(C)SCCN(S(=O)(=O)c2ccc3oc4ccccc4c3c2)[C@H]1C(=O)O` [Example 7, (S)-4-(Dibenzofuran-2-sulfonyl)-2,2-dimethyl-thiomorpholine-3-carboxylic Acid]: the IC50 in test [1] was 59 µM; in test [2] it was 210 nM; in test [3] it was 11000 nM; in test [4], 4000 nM; in test [5], 3900 nM; in test [6], 16000 nM. In test [7], this compound had an IC50 of 100 µM.

Regarding `CC1(C)SCCN(S(=O)(=O)c2ccc3c(c2)Cc2ccccc2-3)[C@H]1C(=O)NO` [Example 6, (S)-4-(9H-Fluorene-2-sulfonyl)-2,2-dimethyl-thiomorpholine-3-carboxylic Acid Hydroxyamide], the IC50 was 0.14 µM in test [1]; 8 nM in test [2]; 4 nM in test [3]; 63 nM in test [4]; 24 nM in test [5]; 880 nM in test [6]. Also, half-maximal inhibition in test [7] (IC50) required 0.55 µM.

As for `CC1(C)[C@H](C(=O)NO)N(S(=O)(=O)c2ccc3oc4ccccc4c3c2)CCS1(=O)=O` [Example 15, (S)-4-(Dibenzofuran-2-sulfonyl)-2,2-dimethyl-1,1-dioxo-thiomorpholine-3-carboxylic Acid Hydroxyamide], the IC50 came out at 0.033 µM in test [1]; 8 nM in test [2]; 13 nM in test [3]; 98 nM in test [4]; 250 nM in test [5]; 32 nM in test [6]. Also, the IC50 in test [7] is 1.8 µM.

As for `CC1(C)SCCN(S(=O)(=O)c2ccc3c(c2)oc2ccccc23)[C@H]1C(=O)NO` [Example 2, (S)-4-(Dibenzofuran-3-sulfonyl)-2,2-dimethyl-thiomorpholine-3-carboxylic Acid Hydroxyamide], the IC50 in test [1] stood at 0.013 µM; in test [2], 11 nM; in test [3] it was 4 nM; in test [4], 26 nM; in test [5] it was 15 nM; in test [6], 200 nM. In test [7], this compound came in with an IC50 of 0.21 µM.

Turning to `CC1(C)SCN(S(=O)(=O)c2ccc3c(c2)oc2ccccc23)[C@@H]1C(=O)O` [Example 3, R-3-(Dibenzofuran-3-sulfonyl)-5,5-dimethyl-thiazolidine-4-carboxylic Acid], the IC50 in test [1] is 100 µM; in test [2], 2500 nM; in test [3], 23000 nM; in test [4] it was 10000 nM; in test [5], 9500 nM; in test [6] it was 100000 nM. The compound also displayed an IC50 in test [7] of 150 µM.

As for `CC1(C)SCCN(S(=O)(=O)c2ccc3oc4cc([N+](=O)[O-])ccc4c3c2)[C@H]1C(=O)O` [Example 13, (S)-2,2-Dimethyl-4-(7-nitro-dibenzofuran-2-sulfonyl)-thiomorpholine-3-carboxylic Acid], the IC50 came out at 60 µM in test [1]; 1000 nM in test [2]; 2700 nM in test [3]; 15000 nM in test [4]; 33000 nM in test [5]; 1600 nM in test [6]. Further, the IC50 in test [7] was 100 µM.

As for `CC1(C)SCCN(S(=O)(=O)c2ccc3oc4cc([N+](=O)[O-])ccc4c3c2)[C@H]1C(=O)NO` [Example 14, (S)-2,2-Dimethyl-4-(7-nitro-dibenzofuran-2-sulfonyl)-thiomorpholine-3-carboxylic Acid Hydroxyamide], the IC50 was 0.012 µM in test [1]; 5 nM in test [2]; 2 nM in test [3]; 24 nM in test [4]; 22 nM in test [5]; 38 nM in test [6]. For the same compound, 0.19 µM corresponded to half-maximal inhibition in test [7] (IC50).

One may read the IC50 as the midpoint of a concentration-inhibition curve.
